A short description of data set [1]: Monkey metabolite profiling (LC-MS with radioactivity detection). It is filed as in vivo, cynomolgus monkeys. Particulars: cynomolgus monkey, in vivo, iv, 10 mg/kg. On the procedure: (ii) Monkey study design. The study used 3 male cynomolgus monkeys, each administered a single 10 mg/kg IV dose of [^14C]-rezafungin (with a target radioactivity of 100 μCi/kg of [^14C]-rezafungin) by infusion into a saphenous vein over 20 min. Whole blood and plasma samples were collected at each of the following time points: predose, 0.5, 2, 4, 8, 24, 48, 96 120, 144, 168, 240, 480, 720, and 1440 h postdose. Urine, feces, and cage washings were collected at predose (urine/feces only) and daily 24-h collections for 30 days.
(§1) (iv) Metabolite profiling. The metabolite identification and urine profiling were achieved using pooled samples by equal percent weight of samples (urine, bile, feces) or by equal volume (50 μl) aliquots of each plasma sample across all time points/intervals. The urine, plasma, bile, and fecal samples were analyzed using liquid chromatography tandem mass spectrometry (LC-MS) coupled with a radioactivity flow-through detector for metabolite profiling and identification. Tandem MS experiments were performed, and the structures of the metabolites were proposed based on their MS/MS spectra. The proposed structures were confirmed by comparison of the retention times and product ion spectra with the authentic reference standards when possible.

A short description of data set [2]: Rat metabolite profiling (LC-MS with radioactivity detection). It is filed as in vivo, Sprague-Dawley rats. The following applies: rat, in vivo, iv, 15 mg/kg. Here is the method: (i) Rat study design. The study used 12 male Sprague-Dawley rats, each administered a bolus IV injection into the tail vein over approximately 3–4 min of 15 mg/kg of rezafungin (with a target radioactivity of 200 μCi/kg of [^14C]-rezafungin). Three of the rats were bile duct cannulated. Whole blood/plasma, urine, feces/bile, and cage washings were collected at periodic intervals from noncannulated rats until euthanization at 336 h postdose and from bile duct cannulated rats until euthanization at 120 h postdose as that was the duration that the patency of bile duct cannulae could be maintained. Carcasses were collected at the time of euthanization. All samples were analyzed for drug-derived radioactivity by liquid scintillation counting.
as §1

The conditions of data set [3]: cited from earlier work. The text has this: Biliary excretion has been observed for caspofungin([17]) and anidulafungin([18]). In the case of anidulafungin, although uncommon, passive diffusion (up to 10% of dosed fraction) was reported for anidulafungin, with which rezafungin ...

*1 amine or outer side, *2 acyl side, *3 side chain or, on linkers, in order; H or OH if unused. Where a SMILES comes first, the peptide text is derived from it. Bridges are numbered along the chain shown (N, C = ends). [ ]: non-standard residue; d: D form. The star is where a group is joined. Orn(4R-OH,5R-OCH2CH2NMe3+) = C[N+](C)(C)CCO[C@@H](N[*:3])[C@H](O)C[C@H](N[*:1])C(=O)[*:2]; hTyr(3S-OH,4S-OH) = N[C@H](C(=O)O)[C@H](O)[C@@H](O)c1ccc(O)cc1; X1 = CC(O)CCCOc1ccc(-c2ccc(-c3ccc(C(=O)*)cc3)cc2)cc1; X2 = CCCC(O)COc1ccc(-c2ccc(-c3ccc(C(=O)*)cc3)cc2)cc1; X3 = CCC(O)CCOc1ccc(-c2ccc(-c3ccc(C(=O)*)cc3)cc2)cc1; Pro(3S-OH,4S-Me) = C[C@H]1CN[C@H](C(=O)O)[C@H]1O; X4 = O=C(c1ccc(-c2ccc(-c3ccc(O)cc3)cc2)cc1)*; Hyp = O=C(O)[C@@H]1C[C@@H](O)CN1

For `CCCC(O)COc1ccc(-c2ccc(-c3ccc(C(=O)N[C@H]4C[C@@H](O)[C@@H](OCC[N+](C)(C)C)NC(=O)[C@@H]5[C@@H](O)[C@@H](C)CN5C(=O)[C@H]([C@@H](C)O)NC(=O)[C@H]([C@H](O)[C@@H](O)c5ccc(O)cc5)NC(=O)[C@@H]5C[C@@H](O)CN5C(=O)[C@H]([C@@H](C)O)NC4=O)cc3)cc2)cc1` (stereo partly drawn) [2’-hydroxylpentyl rezafungin] (X2-[Orn(4R-OH,5R-OCH2CH2NMe3+)]T[Hyp][hTyr(3S-OH,4S-OH)]T[Pro(3S-OH,4S-Me)]; lactam 1-C), the “Share of total plasma radioactivity exposure” value is given as 3.0% in data set [1] and ~11% in data set [2]. Also, the “Share of total recovered radioactivity in urine” value (“Share … in urine” for short) in data set [1] stood at 25%; in data set [2], 7.8%.

As for `C[C@@H](O)[C@@H]1NC(=O)[C@H]([C@H](O)[C@@H](O)c2ccc(O)cc2)NC(=O)[C@@H]2C[C@@H](O)CN2C(=O)[C@H]([C@@H](C)O)NC(=O)[C@@H](NC(=O)c2ccc(-c3ccc(-c4ccc(O)cc4)cc3)cc2)C[C@@H](O)[C@@H](OCC[N+](C)(C)C)NC(=O)[C@@H]2[C@@H](O)[C@@H](C)CN2C1=O` [despentyl-rezafungin] (X4-[Orn(4R-OH,5R-OCH2CH2NMe3+)]T[Hyp][hTyr(3S-OH,4S-OH)]T[Pro(3S-OH,4S-Me)]; lactam 1-C), in data set [1], the “Share of total recovered radioactivity in feces” value was 25% and the “Share … in urine” value worked out at 22%. Further, in data set [2], the “Share … in urine” value came out at 28%.

For anidulafungin, the “Passive diffusion, dosed fraction” value in data set [3] is “up to 10 % of dosed fraction”.

`CC(O)CCCOc1ccc(-c2ccc(-c3ccc(C(=O)N[C@H]4C[C@@H](O)[C@@H](OCC[N+](C)(C)C)NC(=O)[C@@H]5[C@@H](O)[C@@H](C)CN5C(=O)[C@H]([C@@H](C)O)NC(=O)[C@H]([C@H](O)[C@@H](O)c5ccc(O)cc5)NC(=O)[C@@H]5C[C@@H](O)CN5C(=O)[C@H]([C@@H](C)O)NC4=O)cc3)cc2)cc1` (stereo partly drawn) [4’-hydroxylpentyl rezafungin] (X1-[Orn(4R-OH,5R-OCH2CH2NMe3+)]T[Hyp][hTyr(3S-OH,4S-OH)]T[Pro(3S-OH,4S-Me)]; lactam 1-C): in data set [1], the “Share of total plasma radioactivity exposure” value was 8.3% and the “Share … in urine” value is 42%. Moreover, in data set [2], the “Share of total plasma radioactivity exposure” value is on record as “about 33%” and the “Share … in urine” value turned out to be 62%.

Regarding `CCC(O)CCOc1ccc(-c2ccc(-c3ccc(C(=O)N[C@H]4C[C@@H](O)[C@@H](OCC[N+](C)(C)C)NC(=O)[C@@H]5[C@@H](O)[C@@H](C)CN5C(=O)[C@H]([C@@H](C)O)NC(=O)[C@H]([C@H](O)[C@@H](O)c5ccc(O)cc5)NC(=O)[C@@H]5C[C@@H](O)CN5C(=O)[C@H]([C@@H](C)O)NC4=O)cc3)cc2)cc1` (stereo partly drawn) [3′-hydroxylpentyl rezafungin] (X3-[Orn(4R-OH,5R-OCH2CH2NMe3+)]T[Hyp][hTyr(3S-OH,4S-OH)]T[Pro(3S-OH,4S-Me)]; lactam 1-C), in data set [1], the “Share of total plasma radioactivity exposure” value stood at 6.3% and the “Share … in urine” value was 12%. The “Share … in urine” value in data set [2] is on record as 1.9%.

The record behind these values is PMC8765310, “Metabolism, Excretion, and Mass Balance of [^14C]-Rezafungin in Animals and Humans” (Antimicrobial Agents and Chemotherapy, 2022).
